Data as given in BindingDB's records for doi:10.1016/j.bioorg.2016.01.004 (University of Karachi, 2016).

How the values were obtained:
[1] = biological target: Carboxylic ester hydrolase (Equus caballus, UniProt Q9N1N9); experiment: AChE and BChE Inhibition Activity; settings: pH 8
Procedure: (§1) Inhibitory activities of AChE and BChE were evaluated by using the Ellman's method [34]. […] For initial screening each compound was dissolved in DMSO (end concentration of DMSO was less than 1% in assay) and tested at a final concentration of 0.5 mM. The compounds with considerable inhibition (more than 50%) were subjected to further analysis by making their 8 to 10 serial dilutions in assay buffer (50 mM Tris-HCl, 0.1 M NaCl and 0.02 M MgCl2, pH 8.0). Reaction mixture comprised of 20 µL assay buffer, 10 µL of test compound, 10 µL of 0.031 U/mL of enzyme (0.5 and 3.4 U/mg of AChE or BuChE respectively). This mixture was incubated at 25 °C for 10 min. After this preincubation, enzymatic reaction was started by addition of 10 µL of 1 mM acetylethiocholine iodide or butyrylthiocholine chloride (depending on the enzyme) and the mixture was incubated again for 15 min. The amount of enzymatic product was esti

Acetylcholinesterase = Acetylcholinesterase (Electrophorus electricus, UniProt O42275); experiment: AChE and BChE Inhibition Activity; settings: pH 8
Chain of Acetylcholinesterase (O42275 whole entry): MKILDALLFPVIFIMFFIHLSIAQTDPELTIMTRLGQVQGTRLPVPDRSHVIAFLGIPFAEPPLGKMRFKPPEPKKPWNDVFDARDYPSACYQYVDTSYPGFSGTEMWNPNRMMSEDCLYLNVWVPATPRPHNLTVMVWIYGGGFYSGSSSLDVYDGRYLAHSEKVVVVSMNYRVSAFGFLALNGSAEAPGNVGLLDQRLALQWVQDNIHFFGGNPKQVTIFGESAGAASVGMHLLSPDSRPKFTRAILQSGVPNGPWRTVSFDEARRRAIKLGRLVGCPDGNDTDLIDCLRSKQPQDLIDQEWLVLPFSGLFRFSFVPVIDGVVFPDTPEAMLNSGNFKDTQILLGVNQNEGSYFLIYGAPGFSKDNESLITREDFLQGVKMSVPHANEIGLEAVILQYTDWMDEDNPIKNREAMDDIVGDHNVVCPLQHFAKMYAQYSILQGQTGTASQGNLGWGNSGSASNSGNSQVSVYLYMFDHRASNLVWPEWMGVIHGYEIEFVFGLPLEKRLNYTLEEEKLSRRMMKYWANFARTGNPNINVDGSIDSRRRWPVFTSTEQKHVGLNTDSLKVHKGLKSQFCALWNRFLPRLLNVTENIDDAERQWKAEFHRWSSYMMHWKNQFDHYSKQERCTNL
Procedure: as §1

Chain of Carboxylic ester hydrolase (Q9N1N9 whole entry): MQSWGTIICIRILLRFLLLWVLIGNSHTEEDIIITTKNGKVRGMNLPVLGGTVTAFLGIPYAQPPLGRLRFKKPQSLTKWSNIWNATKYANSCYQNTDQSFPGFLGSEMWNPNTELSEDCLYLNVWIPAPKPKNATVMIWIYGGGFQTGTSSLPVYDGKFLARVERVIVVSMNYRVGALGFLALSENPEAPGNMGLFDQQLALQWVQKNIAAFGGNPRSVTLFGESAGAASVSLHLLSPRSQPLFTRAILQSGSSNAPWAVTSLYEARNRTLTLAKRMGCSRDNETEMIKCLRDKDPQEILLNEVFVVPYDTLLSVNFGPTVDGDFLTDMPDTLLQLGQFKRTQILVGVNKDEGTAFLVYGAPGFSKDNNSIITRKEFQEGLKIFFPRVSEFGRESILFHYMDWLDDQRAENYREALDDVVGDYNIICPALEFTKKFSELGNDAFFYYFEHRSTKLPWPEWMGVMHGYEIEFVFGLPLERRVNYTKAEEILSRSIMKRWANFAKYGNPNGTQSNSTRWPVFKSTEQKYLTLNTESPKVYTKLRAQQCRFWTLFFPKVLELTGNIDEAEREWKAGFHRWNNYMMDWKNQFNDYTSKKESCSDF

| Compound | IC50 [1] | IC50 (Acetylcholinesterase) |
| --- | --- | --- |
| CC1(c2ccccc2)CC(c2ccccc2)=C(C#N)C(=C(C#N)C#N)N1 (centres undefined) [2-Dicyanomethylene-6-methyl-4,6-bis(phenyl)-1,2,5,6-tetrahydronicotinonitrile (5a)] | 48.1 µM | 20.3 µM |
| Cc1ccc(C2=C(C#N)C(=C(C#N)C#N)NC(C)(c3ccc(C)cc3)C2)cc1 (centres undefined) [2-[3-cyano-6-methyl-4,6-bis(4-methylphenyl)-1,2,5,6-tetrahydropyridin-2-ylidene]propanedinitrile (5b)] | 36.5 µM | 16.9 µM |
| CC1(c2ccc(F)cc2)CC(c2ccc(F)cc2)=C(C#N)C(=C(C#N)C#N)N1 (centres undefined) [2-[3-cyano-4,6-bis(4-fluorophenyl)-6-methyl-1,2,5,6-tetrahydropyridin-2-ylidene]propanedinitrile (5d)] | 55.2 µM | 11.9 µM |
| Cc1cccc(C2=C(C#N)C(=C(C#N)C#N)NC(C)(c3cccc(C)c3)C2)c1 (centres undefined) [2-[3-cyano-6-methyl-4,6-bis(3-methylphenyl)-1,2,5,6-tetrahydropyridin-2-ylidene]propanedinitrile (5c)] | 35.9 µM | 5.21 µM |
| Cc1cccc(C2=C(C#N)C(=C(C#N)c3nnn[nH]3)NC(C)(c3cccc(C)c3)C2)c1 (centres undefined) [2-(Cyano(1H-tetrazol-5-yl)methylene)-6-methyl-4,6-bis(3'/3''-methylphenyl)-1,2,5,6-tetrahydronicotinonitrile (2c)] | 62.2 µM | 20.8 µM |
| CC1(c2ccc(I)cc2)CC(c2ccc(I)cc2)=C(C#N)C(=C(C#N)C#N)N1 (centres undefined) [2-[3-cyano-4,6-bis(4-iodophenyl)-6-methyl-1,2,5,6-tetrahydropyridin-2-ylidene]propanedinitrile (5e)] | 45.3 µM | 11.2 µM |
| CC1(c2cccc(Cl)c2)CC(c2cccc(Cl)c2)=C(C#N)C(=C(C#N)c2nnn[nH]2)N1 (centres undefined) [2-(Cyano(1H-tetrazol-5-yl)methylene)-6-methyl-4,6-bis(3'/3''-chlorophenyl)-1,2,5,6-tetrahydronicotinonitrile (2e)] | 2.78 µM | 2.32 µM |
| CN(C)C(=O)Oc1cccc([N+](C)(C)C)c1 [m-Trimethylammoniumphenyldimethylcarbamate] | 43.2 µM | 19.3 µM |
| COc1cccc(C2=C(C#N)C(=C(C#N)C#N)NC(C)(c3cccc(OC)c3)C2)c1 (centres undefined) [2-[3-cyano-4,6-bis(3-methoxyphenyl)-6-methyl-1,2,5,6-tetrahydropyridin-2-ylidene]propanedinitrile (5g)] | 48.2 µM | 1.56 µM |
| CC1(c2ccc(O)cc2)CC(c2ccc(O)cc2)=C(C#N)C(=C(C#N)c2nnn[nH]2)N1 (centres undefined) [2-(Cyano(1H-tetrazol-5-yl)methylene)-6-methyl-4,6-bis(4'/4''-hydroxyphenyl)-1,2,5,6-tetrahydronicotinonitrile (2h)] | 2.45 µM | 7.42 µM |
| COc1ccccc1C1=C(C#N)C(=C(C#N)c2nnn[nH]2)NC(C)(c2ccccc2OC)C1 (centres undefined) [2-(Cyano(1H-tetrazol-5-yl)methylene)-6-methyl-4,6-bis(2'/2''-methoxyphenyl)-1,2,5,6-tetrahydronicotinonitrile (2g)] | 0.29 µM | 20.3 µM |
| CC1(c2cccc(F)c2)CC(c2cccc(F)c2)=C(C#N)C(=C(C#N)C#N)N1 (centres undefined) [2-[3-cyano-4,6-bis(3-fluorophenyl)-6-methyl-1,2,5,6-tetrahydropyridin-2-ylidene]propanedinitrile (5f)] | 68.8 µM | 8.01 µM |
| COc1cccc(C2=C(C#N)C(=C(C#N)c3nnn[nH]3)NC(C)(c3cccc(OC)c3)C2)c1 (centres undefined) [2-(Cyano(1H-tetrazol-5-yl)methylene)-6-methyl-4,6-bis(3'/3''-methoxyphenyl)-1,2,5,6-tetrahydronicotinonitrile (2f)] | 39.2 µM | 5.11 µM |
| Cc1ccc(C2=C(C#N)C(=C(C#N)c3nnn[nH]3)NC(C)(c3ccc(C)cc3)C2)cc1 (centres undefined) [2-(Cyano(1H-tetrazol-5-yl)methylene)-6-methyl-4,6-bis(4'/4''-methylphenyl)-1,2,5,6-tetrahydronicotinonitrile (2b)] | 5.87 µM | 4.45 µM |
| CC1(c2ccc(F)cc2)CC(c2ccc(F)cc2)=C(C#N)C(=C(C#N)c2nnn[nH]2)N1 (centres undefined) [2-(Cyano(1H-tetrazol-5-yl)methylene)-6-methyl-4,6-bis(4'/4''-fluorophenyl)-1,2,5,6-tetrahydronicotinonitrile (2d)] | 38.8 µM | 2.01 µM |
| CC1(c2ccc(O)cc2)CC(c2ccc(O)cc2)=C(C#N)C(=C(C#N)C#N)N1 (centres undefined) [2-[3-cyano-4,6-bis(4-hydroxyphenyl)-6-methyl-1,2,5,6-tetrahydropyridin-2-ylidene]propanedinitrile (5h)] | 42.2 µM | 5.38 µM |
| CC1(c2ccccc2)CC(c2ccccc2)=C(C#N)C(=C(C#N)c2nnn[nH]2)N1 (centres undefined) [2-(Cyano(1H-tetrazol-5-yl)methylene)-6-methyl-4,6-bis(phenyl)-1,2,5,6-tetrahydronicotinonitrile (2a)] | 22.1 µM | 7.02 µM |
